Assay results taken from ChEMBL document CHEMBL4354883, “Design, Synthesis, and Biological Evaluation of HSP90 Inhibitor-SN38 Conjugates for Targeted Drug Accumulation” (J Med Chem, 2020).
The source made the active and inactive calls. The calls are words filed in the database; no cut-off is given here.

How the values were obtained:
[1] = Drug uptake in human A549 cells assessed as maximum emission peaks at 430 nm at 5 uM by fluorescence emission spectral analysis; assay type: ADME, cell-based; conditions: a549, 5 µM
[2] = tested on: A549; experiment: Downregulation of TOP1 expression in human A549 cells after 24 hrs by Western blot analysis; assay type: functional, cell-based
[3] = tested on: MIA PaCa-2; experiment: Antiproliferative activity against human MIAPaCa2 cells assessed as reduction in cell viability after 72 hrs by SRB assay; assay type: functional, cell-based; conditions: MIA PaCa-2, 72 h
[4] = tested on: HCT-116; experiment: Antiproliferative activity against human HCT116 cells assessed as reduction in cell viability after 72 hrs by SRB assay; assay type: functional, cell-based; conditions: HCT-116, 72 h
[5] = Clearance in BALB/c mouse at 50 mg/kg, iv after 5 to 24 hrs by LC-MS/MS analysis; assay type: ADME, organism-based; conditions: in vivo
[6] = Half life in human plasma at 25 uM by HPLC analysis; assay type: ADME, cell-free
[7] = tested on: HCT-116; experiment: Antitumor activity against human HCT116 cells xenografted in mouse assessed as tumor weight at 50 mg/kg, iv for 5 consecutive days per week and measured every 3 to 4 days up to 14 days (reference value: 1.73 +/- 0.53 g); assay type: functional
[8] = AUC(0 to infinity) in BALB/c mouse at 50 mg/kg, iv after 5 to 24 hrs by LC-MS/MS analysis; assay type: ADME, organism-based; set-up: dose 50 mg/kg, route intravenous, time infinity; conditions: in vivo
[9] = tested on: HCT-116; experiment: Antitumor activity against human HCT116 cells xenografted in mouse assessed as reduction in tumor growth at 50 mg/kg, iv for 5 consecutive days per week and measured every 3 to 4 days up to 14 days; assay type: functional, organism-based
[10] = tested on: A549; experiment: Ratio of prodrug release in human A549 cells assessed as increase in 7-ethyl-10-hydroxycamptothecin level at 5 uM after 12 hrs by LC-MS/MS analysis to prodrug release in human A549 cells assessed as increase in 7-ethyl-10-hydroxycamptothecin level at 5 uM after 1 hr by LC-MS/MS analysis; assay type: ADME, cell-based; conditions: a549, 5 µM
[11] = Drug uptake in human A549 cells assessed as eHSP90-mediated total cellular drug internalization at 5 uM after 12 hrs by LC-MS/MS analysis; assay type: ADME, cell-based; conditions: a549, 12 h
[12] = tested on: CAPAN-1; experiment: Induction of cell cycle arrest in human Capan1 cells assessed as accumulation at G2/M phase after 24 hrs by RNase A/PI-staining based flow cytometric analysis; assay type: functional
[13] = tested on: HCT-116; experiment: Induction of cell cycle arrest in human HCT116 cells assessed as accumulation at G2/M phase after 24 hrs by RNase A/PI-staining based flow cytometric analysis; assay type: functional
[14] = Intrinsic clearance in human liver microsomes at 1 uM preincubated for 5 mins followed by NADPH addition and measured up to 360 mins by LC-MS/MS analysis; assay type: ADME, Microsome; conditions: 6 h
[15] = Half life in BALB/c mouse at 50 mg/kg, iv after 5 to 24 hrs by LC-MS/MS analysis; assay type: ADME, organism-based; conditions: in vivo
[16] = target: Heat shock protein HSP 90-alpha (Homo sapiens, UniProt P07900); experiment: biochemical
Description: Inhibition of recombinant human full length HSP90 alpha expressed in Escherichia coli cells after 1 hr by fluorescence polarization assay

[17] = Half life in mouse plasma at 25 uM by HPLC analysis; assay type: ADME, cell-free
[18] = Metabolic stability in human liver microsomes assessed as compound remaining at 1 uM preincubated for 5 mins followed by NADPH addition and measured after 60 mins by LC-MS/MS analysis; assay type: ADME, Microsome; conditions: read-out: Stability
[19] = Drug uptake in human A549 cells assessed as endocytosis-mediated total cellular drug internalization at 5 uM after 12 hrs by LC-MS/MS analysis relative to irinotecan; assay type: ADME, cell-based; conditions: a549, 12 h
[20] = Half life of compound in PBS buffer at pH 6.0 at 50 uM by HPLC analysis; assay type: physicochemical
[21] = Toxicity in mouse xenografted with human HCT116 cells assessed as body weight loss at 50 mg/kg, iv for 5 consecutive days per week and measured every 3 to 4 days up to 14 days relative to control; assay type: organism-based; conditions: in vivo
[22] = tested on: A549; experiment: Induction of cell cycle arrest in human A549 cells assessed as accumulation at G2/M phase after 24 hrs by RNase A/PI-staining based flow cytometric analysis; assay type: functional
[23] = target: Heat shock protein HSP90 (Homo sapiens, UniProt P07900+P08238); experiment: Drug uptake in human A549 cells assessed as eHSP90-mediated drug internalization by measuring blue fluorescence in PBS solution at 5 uM after 1 to 12 hrs by confocal laser scanning microscopic analysis; assay type: ADME, cell-based; conditions: a549, 5 µM, TDE = time-dependent effect
[24] = tested on: A549; experiment: Antiproliferative activity against human A549 cells assessed as reduction in cell viability after 72 hrs by SRB assay; assay type: functional, cell-based; conditions: A549, 72 h
[25] = tested on: HCT-116; experiment: Downregulation of TOP1 expression in human HCT116 cells after 24 hrs by Western blot analysis; assay type: functional, cell-based
[26] = Drug uptake in human A549 cells assessed as endocytosis-mediated total cellular drug internalization at 5 uM after 12 hrs by LC-MS/MS analysis relative to SN38; assay type: ADME, cell-based; conditions: a549, 12 h
[27] = Half life of compound in PBS buffer at pH 7.4 at 50 uM by HPLC analysis; assay type: physicochemical
[28] = tested on: HCT-116; experiment: Antitumor activity against human HCT116 cells xenografted in mouse assessed as reduction in tumor volume at 50 mg/kg, iv for 5 consecutive days per week and measured every 3 to 4 days up to 14 days by microcaliper analysis relative to control; assay type: functional
[29] = tested on: L02; experiment: Cytotoxicity agains human HL7702 cells assessed as reduction in cell viability after 72 hrs by SRB assay; assay type: cell-based; conditions: L02, 72 h
[30] = Drug uptake in human A549 cells assessed as blue fluorescence at 5 uM after 12 hrs by confocal laser scanning microscopic analysis; assay type: ADME, cell-based; conditions: a549, 12 h
[31] = Half life in human liver microsomes at 1 uM preincubated for 5 mins followed by NADPH addition and measured up to 360 mins by LC-MS/MS analysis; assay type: ADME, Microsome
[32] = Apparent volume of distribution at steady state in BALB/c mouse at 50 mg/kg, iv after 5 to 24 hrs by LC-MS/MS analysis; assay type: ADME, organism-based; conditions: in vivo, read-out: Vdss(app)
[33] = tested on: CAPAN-1; experiment: Antiproliferative activity against human Capan1 cells assessed as reduction in cell viability after 72 hrs by SRB assay; assay type: functional, cell-based; conditions: CAPAN-1, 72 h
[34] = Drug uptake in human A549 cells assessed as blue shift in absorption spectrum at 5 uM by UV-visible absorption spectral analysis; assay type: ADME, cell-based; conditions: a549, 5 µM
[35] = Toxicity in kidney of mouse xenografted with human Capan1 cells assessed as pathological changes at 50 mg/kg, iv for every 2 days measured at 2 hrs post last dose by H and E staining based analysis; assay type: organism-based; conditions: in vivo
[36] = Toxicity in spleen of mouse xenografted with human Capan1 cells assessed as pathological changes at 50 mg/kg, iv for every 2 days measured at 2 hrs post last dose by H and E staining based analysis; assay type: organism-based; conditions: in vivo
[37] = Drug uptake in mouse plasma xenografted with human Capan1 cells at 50 mg/kg, iv after 30 mins by LC-MS/MS analysis; assay type: ADME, organism-based; conditions: in vivo, 0.5 h
[38] = Drug uptake in mouse plasma xenografted with human HCT116 cells assessed as increase in drug level with longer half life at 50 mg/kg, iv administered as single dose and measured after 30 mins to 72 hrs by LC-MS/MS analysis; assay type: ADME, organism-based; conditions: in vivo

Structure (SMILES) | Drug uptake [1] | TOP1 downregulation [2] | IC50 [3] [nM] | IC50 [4] [nM] | clearance [5] [mL/min/kg] | half-life at 25 µM [6] [h] | Activity [7] [g] | AUC(0-inf) [8] [µg·h/mL] | Activity [9] | Ratio [10] | Drug uptake [11] | Activity [12] | Activity [13] | CLH [14] [mL/min/kg] | half-life [15] [h] | IC50 [16] [nM] | half-life at 25 µM [17] [h] | remaining at 1 h, 1 µM [18] [%] | fold change (FC) [19] | half-life at 50 µM [20] [h] | also measured
CCc1c2c(nc3ccc(OC(=O)N4CCC(NC(=O)c5noc(-c6cc(C(C)C)c(O)cc6O)c5-c5ccc(CN6CCOCC6)cc5)CC4)cc13)-c1cc3c(c(=O)n1C2)COC(=O)[C@]3(O)CC | Active | Dose-dependent effect | 644 | 614 | 6.91 | > 24 | 0.47 | 172 | Active | 3.7 | Active | Dose-dependent effect | Dose-dependent effect | 4.9 | 1.72 | 164 | > 24 | 87 | 2.8 to 3.8 | > 24 | Activity [21]: < 20%; Activity [22]: Dose-dependent effect; Drug uptake [23]: Tde; IC50 [24]: 1110 nM; inhibition [25]: Dose-dependent effect; fold change (FC) [26]: 1.6 to 1.9; half-life at 50 µM [27]: > 24 h; T/C [28]: 33.8%; IC50 [29]: 7360 nM; Drug uptake [30]: Active; half-life at 1 µM [31]: 2.6 h; Vd [32]: 0.103 L/kg; IC50 [33]: 6800 nM; Drug uptake [34]: Active
CCc1c2c(nc3ccc(O)cc13)-c1cc3c(c(=O)n1C2)COC(=O)[C@@]3(CC)OC(=O)CNC(=O)c1noc(-c2cc(C(C)C)c(O)cc2O)c1-c1ccc(CN2CCOCC2)cc1 | Active | Dose-dependent effect | 46 | 22 | 5.81 | 13 | 0.32 | 148 | Active | 4.3 | Active | Dose-dependent effect | Dose-dependent effect | 5.7 | 1.31 | 72 | 10.5 | 80 | 2.8 to 3.8 | > 24 | Activity [35]: Non-Toxic; Activity [36]: Toxic; Activity [21]: < 20%; Activity [22]: Dose-dependent effect; Drug uptake [23]: Tde; IC50 [24]: 56 nM; Drug uptake [37]: Active; inhibition [25]: Dose-dependent effect; fold change (FC) [26]: 1.6 to 1.9; Drug uptake [38]: Active; half-life at 50 µM [27]: 10 h; T/C [28]: 16.7%; IC50 [29]: 6870 nM; Drug uptake [30]: Active; half-life at 1 µM [31]: 2.1 h; Vd [32]: 0.101 L/kg; IC50 [33]: 36 nM; Drug uptake [34]: Active
